{"source": "paper PMC7306766", "about": "(Proceedings of the National Academy of Sciences of the …, 2020)", "target": "T1, mouse HCN2 (Mus musculus, UniProt O88703)", "T1 sequence (O88703 1-863)": "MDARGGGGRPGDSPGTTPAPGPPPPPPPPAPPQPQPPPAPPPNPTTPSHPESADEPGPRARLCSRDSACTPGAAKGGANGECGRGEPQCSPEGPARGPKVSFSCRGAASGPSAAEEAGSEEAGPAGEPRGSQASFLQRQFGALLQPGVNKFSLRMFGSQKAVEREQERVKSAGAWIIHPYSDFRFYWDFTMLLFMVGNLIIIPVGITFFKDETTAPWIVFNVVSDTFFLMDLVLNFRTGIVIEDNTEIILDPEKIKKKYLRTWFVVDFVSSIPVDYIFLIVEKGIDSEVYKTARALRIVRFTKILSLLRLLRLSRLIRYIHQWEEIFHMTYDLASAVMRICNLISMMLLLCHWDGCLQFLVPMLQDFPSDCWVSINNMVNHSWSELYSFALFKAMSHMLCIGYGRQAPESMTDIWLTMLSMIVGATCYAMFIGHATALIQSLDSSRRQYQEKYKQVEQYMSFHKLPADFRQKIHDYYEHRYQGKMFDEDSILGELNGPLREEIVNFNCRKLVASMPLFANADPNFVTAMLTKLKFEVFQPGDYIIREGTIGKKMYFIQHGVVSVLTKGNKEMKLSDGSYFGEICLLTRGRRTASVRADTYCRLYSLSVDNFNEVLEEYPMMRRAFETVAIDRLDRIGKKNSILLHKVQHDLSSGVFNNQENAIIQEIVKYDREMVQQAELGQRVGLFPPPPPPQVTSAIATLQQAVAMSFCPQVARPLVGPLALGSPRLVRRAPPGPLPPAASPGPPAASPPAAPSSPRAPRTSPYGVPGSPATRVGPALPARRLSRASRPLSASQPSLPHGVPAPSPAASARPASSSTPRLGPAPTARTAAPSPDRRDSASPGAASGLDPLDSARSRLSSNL", "experiment": "patch clamp, excised inside-out patches from HEK cells", "assay_type": "biochemical", "conditions": "open-channel pore blocker", "data": [{"smiles": "CCN(c1ccccc1)c1cc(NC)[n+](C)c(C)n1", "note": "[ZD7288]", "values": [{"measurement": "% inhibition at 200 μM", "value": "mean relative inhibition of zebrafish HCNL1 and mouse HCN2 in response to ZD7288"}]}]}
